These results are taken from ChEMBL document CHEMBL2029314, “Discovery of HIV fusion inhibitors targeting gp41 using a comprehensive α-helix mimetic library” (Bioorg Med Chem Lett, 2012).

The nature of one experiment: Displacement of C18-Aib-lucifer yellow from HIV1 envelope glycoprotein gp41 Fe(env2.0)3 by fluorescence assay. Details: species or system Human immunodeficiency virus 1.
Conditions: not given
For the molecule `CC[C@H](N)C(=O)Nc1ccc(C(=O)N[C@@H](Cc2c[nH]c3ccccc23)C(=O)O)cc1OCCc1c[nH]c2ccccc12`, the Ki was less than 10 µM.

`N[C@@H](Cc1c[nH]c2ccccc12)C(=O)Nc1ccc(C(=O)N[C@@H](CCc2ccccc2)C(=O)O)cc1OCc1ccc(Cl)cc1` registered a Ki of less than 25 µM.

In turn, `N[C@@H](CC(=O)O)C(=O)Nc1ccc(C(=O)NCCc2c[nH]c3ccccc23)cc1OCCc1c[nH]c2ccccc12` came in with a Ki of 18 µM. In other words, the double-digit micromolar range.

Molecule `CSCC[C@H](N)C(=O)Nc1ccc(C(=O)N[C@@H](CCc2ccccc2)C(=O)O)cc1OCc1ccc2ccccc2c1` yielded a Ki of less than 10 µM.

`CSCC[C@H](N)C(=O)Nc1ccc(C(=O)N[C@@H](Cc2c[nH]c3ccccc23)C(=O)O)cc1OCCc1c[nH]c2ccccc12` returned a Ki of less than 10 µM.

`N[C@@H](Cc1ccc(O)cc1)C(=O)Nc1ccc(C(=O)N[C@@H](CCc2ccccc2)C(=O)O)cc1OCc1ccc(Cl)cc1`: the Ki is less than 25 µM.

`CC(C)C[C@H](N)C(=O)Nc1ccc(C(=O)N[C@@H](CCc2ccccc2)C(=O)O)cc1OCc1ccc2ccccc2c1`: the Ki was less than 10 µM.

On to `COC(=O)[C@H](Cc1c[nH]c2ccccc12)NC(=O)c1ccc(NC(=O)[C@@H](N)CC(=O)O)c(OCCc2c[nH]c3ccccc23)c1`, for which affinity was put at a Ki of 21 µM.

Molecule `N[C@@H](Cc1c[nH]c2ccccc12)C(=O)Nc1ccc(C(=O)N[C@@H](Cc2c[nH]c3ccccc23)C(=O)O)cc1OCCc1c[nH]c2ccccc12` had a Ki of less than 10 µM.

`CC(C)C[C@H](N)C(=O)Nc1ccc(C(=O)N[C@@H](Cc2c[nH]c3ccccc23)C(=O)O)cc1OCCc1c[nH]c2ccccc12` returned a Ki of less than 10 µM.

`N[C@@H](Cc1ccc(O)cc1)C(=O)Nc1ccc(C(=O)N[C@@H](CCc2ccccc2)C(=O)O)cc1OCc1ccc2ccccc2c1` displayed a Ki of less than 10 µM.

As to `N[C@@H](CO)C(=O)Nc1ccc(C(=O)N[C@@H](Cc2c[nH]c3ccccc23)C(=O)O)cc1OCCc1c[nH]c2ccccc12`, the Ki is less than 10 µM.

`CSCC[C@H](N)C(=O)Nc1ccc(C(=O)N[C@@H](CCc2ccccc2)C(=O)O)cc1OCc1ccc(Cl)cc1` returned a Ki of less than 25 µM.

With `C[C@@H](O)[C@H](N)C(=O)Nc1ccc(C(=O)N[C@@H](Cc2c[nH]c3ccccc23)C(=O)O)cc1OCCc1c[nH]c2ccccc12`, the Ki was less than 10 µM.

`N[C@@H](CCc1ccccc1)C(=O)Nc1ccc(C(=O)N[C@@H](CCc2ccccc2)C(=O)O)cc1OCc1ccc(Cl)cc1` showed a Ki of less than 25 µM.

On to `N[C@@H](CC(=O)O)C(=O)Nc1ccc(C(=O)N[C@H](CC(=O)O)Cc2c[nH]c3ccccc23)cc1OCCc1c[nH]c2ccccc12`, for which the affinity corresponds to a Ki of 0.6 µM.

The molecule `CC[C@H](C)[C@H](N)C(=O)Nc1ccc(C(=O)N[C@@H](CCc2ccccc2)C(=O)O)cc1OCc1ccc(Cl)cc1` gave a Ki of less than 25 µM.

In the case of `C[C@H](N)C(=O)Nc1ccc(C(=O)N[C@@H](Cc2c[nH]c3ccccc23)C(=O)O)cc1OCCc1c[nH]c2ccccc12`, the Ki is less than 10 µM.

As to `N[C@@H](CCc1ccccc1)C(=O)Nc1ccc(C(=O)N[C@@H](CCc2ccccc2)C(=O)O)cc1OCc1ccc2ccccc2c1`, the inhibitory constant (Ki) was less than 10 µM.

Regarding `CC[C@H](C)[C@H](N)C(=O)Nc1ccc(C(=O)N[C@@H](CCc2ccccc2)C(=O)O)cc1OCc1ccc2ccccc2c1`, the Ki is less than 10 µM.

Turning to `O=C(O)CCC(=O)Nc1ccc(C(=O)N[C@@H](Cc2c[nH]c3ccccc23)C(=O)O)cc1OCCc1c[nH]c2ccccc12`, the affinity, expressed as Ki, was 0.6 µM.

`N[C@@H](Cc1c[nH]c2ccccc12)C(=O)Nc1ccc(C(=O)N[C@@H](CCc2ccccc2)C(=O)O)cc1OCc1ccc2ccccc2c1`: the Ki is less than 10 µM.

Regarding `CC(C)C[C@H](NC(=O)c1ccc(NC(=O)[C@@H](N)CO)c(OCCc2c[nH]c3ccccc23)c1)C(=O)O`, the Ki was less than 10 µM.

In turn, `N[C@@H](Cc1ccc2ccccc2c1)C(=O)Nc1ccc(C(=O)N[C@@H](Cc2c[nH]c3ccccc23)C(=O)O)cc1OCCc1c[nH]c2ccccc12` yielded a Ki of less than 10 µM.

`CC(C)[C@H](N)C(=O)Nc1ccc(C(=O)N[C@@H](Cc2c[nH]c3ccccc23)C(=O)O)cc1OCCc1c[nH]c2ccccc12` displayed a Ki of less than 10 µM.

As to `N[C@@H](Cc1ccc(O)cc1)C(=O)Nc1ccc(C(=O)N[C@@H](Cc2c[nH]c3ccccc23)C(=O)O)cc1OCCc1c[nH]c2ccccc12`, the Ki was less than 10 µM.

`N[C@@H](CC(=O)O)C(=O)Nc1ccc(C(=O)N[C@@H](Cc2c[nH]c3ccccc23)C(=O)O)cc1OCCc1c[nH]c2ccccc12`: the Ki was less than 10 µM.

Consider `NC(=O)C[C@H](N)C(=O)Nc1ccc(C(=O)N[C@@H](Cc2c[nH]c3ccccc23)C(=O)O)cc1OCCc1c[nH]c2ccccc12`, for which the affinity corresponds to a Ki of 0.8 µM.

In the case of `N[C@@H](Cc1ccccc1)C(=O)Nc1ccc(C(=O)N[C@@H](Cc2c[nH]c3ccccc23)C(=O)O)cc1OCCc1c[nH]c2ccccc12`, the Ki is less than 10 µM.

With `CC[C@H](C)[C@H](N)C(=O)Nc1ccc(C(=O)N[C@@H](Cc2c[nH]c3ccccc23)C(=O)O)cc1OCCc1c[nH]c2ccccc12`, the Ki was less than 10 µM.

Molecule `COc1ccc(C[C@H](N)C(=O)Nc2ccc(C(=O)N[C@H](CCC(=O)O)Cc3c[nH]c4ccccc34)cc2OCCc2c[nH]c3ccccc23)cc1` yielded a Ki of 100 µM.

With `CC(C)C[C@H](NC(=O)c1ccc(NC(=O)[C@@H](N)CC(=O)O)c(OCCc2c[nH]c3ccccc23)c1)C(=O)O`, the Ki is less than 10 µM.

The molecule `CC(C)C[C@H](NC(=O)c1ccc(NC(=O)[C@@H](N)Cc2ccc3ccccc3c2)c(OCCc2c[nH]c3ccccc23)c1)C(=O)O` yielded a Ki of less than 10 µM.

The molecule `COc1ccc(C[C@H](N)C(=O)Nc2ccc(C(=O)N[C@@H](Cc3c[nH]c4ccccc34)C(=O)O)cc2OCCc2c[nH]c3ccccc23)cc1` gave a Ki of 0.7 µM.

`CC(C)C[C@H](NC(=O)c1ccc(NC(=O)[C@@H](N)CC(N)=O)c(OCCc2c[nH]c3ccccc23)c1)C(=O)O` yielded a Ki of less than 10 µM.

With `N[C@@H](CC(=O)O)C(=O)Nc1ccc(C(=O)N[C@@H](CCc2ccccc2)C(=O)O)cc1OCc1ccc2ccccc2c1`, the Ki was less than 10 µM.

Regarding `COc1ccc(C[C@H](N)C(=O)Nc2ccc(C(=O)N[C@H](CC(=O)O)Cc3c[nH]c4ccccc34)cc2OCCc2c[nH]c3ccccc23)cc1`, affinity was put at a Ki of 50 µM.

The nature of the next experiment: Inhibition of HIV1 envelope glycoprotein 41-mediated membrane fusion between virus-transfected human HL2/3 cells and human TZM-bl cells after 6 hrs by luciferase reporter assay. The format is cell-based. As to conditions: Human immunodeficiency virus 1, TZM-bl.
With `CC[C@H](C)[C@H](NC(=O)c1ccc(N)c(OCc2ccc3ccccc3c2)c1)C(=O)O`, the IC50 is less than 30 µM.

With `COc1ccc(C[C@H](NC(=O)c2ccc(N)c(OCc3ccc4ccccc4c3)c2)C(=O)O)cc1`, the IC50 was less than 30 µM.

`CC[C@H](C)[C@H](NC(=O)c1ccc(N)c(OCc2ccc(Cl)cc2)c1)C(=O)O` gave an IC50 of less than 30 µM.

The molecule `Nc1ccc(C(=O)N[C@@H](CCc2ccccc2)C(=O)O)cc1OCc1ccc2ccccc2c1` showed an IC50 of less than 30 µM.

In the case of `Nc1ccc(C(=O)N[C@@H](Cc2ccccc2)C(=O)O)cc1OCc1ccc2ccccc2c1`, the IC50 is less than 30 µM.

The molecule `CSCC[C@H](NC(=O)c1ccc(N)c(OCc2ccc(O)cc2)c1)C(=O)O` showed an IC50 of less than 30 µM.

On to `CC(C)C[C@H](NC(=O)c1ccc(N)c(OCCc2c[nH]c3ccccc23)c1)C(=O)O`, for which the IC50 is less than 30 µM.

In turn, `Nc1ccc(C(=O)N[C@@H](Cc2ccc3ccccc3c2)C(=O)O)cc1OCc1ccc(O)cc1` returned an IC50 of less than 30 µM.

The molecule `Nc1ccc(C(=O)N[C@@H](Cc2ccc(Cl)cc2)C(=O)O)cc1OCCc1c[nH]c2ccccc12` displayed an IC50 of less than 30 µM.

For `Nc1ccc(C(=O)N[C@@H](Cc2ccc(O)cc2)C(=O)O)cc1OCc1ccc(O)cc1`, the IC50 was less than 30 µM.

`CC[C@H](NC(=O)c1ccc(N)c(OCc2ccc(O)cc2)c1)C(=O)O` returned an IC50 of less than 30 µM.

In turn, `NC(=O)C[C@H](NC(=O)c1ccc(N)c(OCc2ccc(O)cc2)c1)C(=O)O` gave an IC50 of less than 30 µM.

With `Nc1ccc(C(=O)N[C@@H](CCc2ccccc2)C(=O)O)cc1OCCc1c[nH]c2ccccc12`, the IC50 is less than 30 µM.

Consider `CC(C)C[C@H](NC(=O)c1ccc(N)c(OCc2ccc3ccccc3c2)c1)C(=O)O`, for which the IC50 is less than 30 µM.

Consider `Nc1ccc(C(=O)N[C@@H](Cc2ccc3ccccc3c2)C(=O)O)cc1OCc1ccc(Cl)cc1`, for which the IC50 was less than 30 µM.

Take `Nc1ccc(C(=O)N[C@@H](CC(=O)O)C(=O)O)cc1OCc1ccc2ccccc2c1`: the IC50 was less than 30 µM.

The molecule `CC(C)C[C@H](NC(=O)c1ccc(NC(=O)[C@@H](N)Cc2c[nH]c3ccccc23)c(OCCc2c[nH]c3ccccc23)c1)C(=O)O` showed an IC50 of 5 µM.

Regarding `Nc1ccc(C(=O)N[C@@H](Cc2ccc(O)cc2)C(=O)O)cc1OCc1ccc2ccccc2c1`, the IC50 was less than 30 µM.

`CC[C@H](C)[C@H](NC(=O)c1ccc(N)c(OCCc2c[nH]c3ccccc23)c1)C(=O)O` yielded an IC50 of less than 30 µM.

Regarding `NC(=O)C[C@H](N)C(=O)Nc1ccc(C(=O)N[C@@H](Cc2c[nH]c3ccccc23)C(=O)O)cc1OCCc1c[nH]c2ccccc12`, the IC50 was determined as 6 µM.

In the case of `Nc1ccc(C(=O)N[C@@H](CO)C(=O)O)cc1OCc1ccc(O)cc1`, the IC50 is less than 30 µM.

Molecule `CC(C)[C@H](NC(=O)c1ccc(N)c(OCc2ccc(O)cc2)c1)C(=O)O` displayed a 50% inhibitory concentration (IC50) of less than 30 µM.

Consider `COc1ccc(C[C@H](N)C(=O)Nc2ccc(C(=O)N[C@@H](Cc3c[nH]c4ccccc34)C(=O)O)cc2OCCc2c[nH]c3ccccc23)cc1`, for which half-maximal inhibition (IC50) was put at 8 µM.

Turning to `Nc1ccc(C(=O)N[C@@H](Cc2c[nH]c3ccccc23)C(=O)O)cc1OCCc1c[nH]c2ccccc12`, the IC50 was less than 30 µM.

The Ki is a measure of affinity in units of concentration, obtained from inhibition or displacement. Lower therefore signals higher affinity. As a reminder, the IC50 is the concentration at which inhibition is half-maximal. Low values mean greater potency in that assay, high ones weaker potency in that assay.
